Source: patent US20200069650A1, “DEXMEDETOMIDINE OR MEDETOMIDINE FOR USE IN TREATING SEPARATION ANXIETY IN DOGS” (Orion Corporation, priority 2016, published 2020)

System: separation anxiety in dogs
Conditions: Example 6: mixed breed dog, behavioural modification supported by fluoxetine
Experimental: Oromucosal dexmedetomidine gel was then administered to buccal/gingival mucosa of the dog with a syringe using a dose of 125 μg/m^2 of dexmedetomidine hydrochloride about 15 minutes prior to unscheduled departures such as shopping and visiting friends.

CNCCC(Oc1ccc(C(F)(F)F)cc1)c1ccccc1 (centres unmarked) [fluoxetine]
effect of conventional therapy on regular daily work departures: enabled trouble free leaving dog at home during regular daily work departures
signs of separation anxiety at unscheduled departures under conventional therapy (before gel): still showed signs of sepration anxiety to unscheduled departures
